In one data set the test system is RBL-2H3 cells. The data set is described as follows: Maximum tolerated concentration (cytotoxicity by lactate dehydrogenase release). In kind it is cell-based, Rat. To be noted: for MTC (maximum tolerated concentration): highest concentration not causing cytotoxicity (LDH release), RBL-2H3 cells; for SI (safety index): ratio between MTC and IC50. An excerpt:
The safety index (SI) of a test compound is the ratio between the maximum tolerated concentration and the IC50 and is used as a measure of the relative safety of the test compound.

A further data set concerns DTH response in mice. The data set is classed as in vivo. As to conditions: DTH; for Inhibition of mouse ear swelling: 24 h after challenge; for inhibition relative to that of the high dose of dexamethasone: versus dexamethasone 1 mg/kg. How it is done:
The anti-inflammatory and anti-allergic effects of compounds 1a and 1c were assessed in a mouse model of skin delayed-type hypersensitivity (DTH) reactions and compared to a vehicle control and to the reference drug dexamethasone. DTH reactions are antigen-specific cell-mediated immune responses, driven primarily by T helper type 1 (Th1) cells, similar to the tuberculin immunization response. The immune reaction induced by an ovalbumin challenge to animals previously sensitized with ovalbumin in Complete Freund's Adjuvant, is characterized by swelling (edema) at the site of challenge, e.g. the mouse ear. Dexamethasone, an anti-inflammatory steroid, reduces cell-mediated immune responses and was employed to validate the responsiveness of the assay to pharmacological treatment.
Female BALB/cJW mice were bred at the University of Lodz, Lodz, Poland and housed in groups of 8 in makrolon cages with a 12 h light-dark cycle. Mice were given free access to food (Agropol S.j., Motycz, Poland) and water.
Sensitization: The protein antigen, ovalbumin, was reconstituted in PBS at 4 mg/ml. An ovalbumin-CFA emulsion was prepared by mixing the protein solution with the CFA suspension at a ratio of 1:1, using two Luer-lock syringes. The emulsion was tested by putting a drop of emulsion onto PBS; if the emulsion remained as a tight droplet on the PBS, the emulsion was deemed ready. Mice were sensitized by subcutaneously injecting 25 μL of emulsion into each side of the tail (100 μg ovalbumin per mouse).
Challenge: On the sixth day after sensitization, DTH was elicited by challenging animals subcutaneously (gauge 30 needle, B. Braun Melsungen, Melsungen, Germany) in the left ears with 10 μL of a 1% suspension of heat-aggregated ovalbumin (HOVA) (100 μg ovalbumin per mouse). The right ears were administered subcutaneously with PBS and served to determine the individual differences in ear thicknesses. HOVA was prepared by heating a 5% solution of ovalbumin in saline for 1 h at 80° C. with occasional swirling. After cooling to room temperature and centrifugation (400 g. 10 min at 4° C.), the pellet was washed twice with saline, resuspended at 2% in PBS and aliquots stored at −30° C. Before injection, HOVA was diluted with an equal volume of PBS and sonicated. Ear thickness was measured with a precise spring-loaded caliper (Art. No. 7309, Mitutoyo, Kawasaki, Japan) before challenge, and 24 h after challenge.
Sensitization, challenge and ear thickness measurement were performed under anesthesia (ketamine 80 mg/kg plus xylazine 8 mg/kg, intraperitoneally).
The anti-inflammatory effects of compounds 1a and 1c were compared to a vehicle control (0.5% methyl cellulose solution) and to the reference drug, dexamethasone. Test compounds were given at 25 or 100 mg/kg orally by gavage (Art. No. 432093, Harvard Apparatus GmbH, March-Hugstetten, Germany) 16 h and 3 h before sensitization and then twice daily with the final dose given 3 h prior to ear challenge (a total of 14 administrations). Dexamethasone was given at 0.1 or 1 mg/kg orally by gavage 3 h before sensitization and once daily with the final dose given 3 h prior to antigen challenge (a total of 7 administrations). All administrations were given in a volume of 10 ml/kg.
To account for individual variability, the increase in right ear thickness, before and 24 h after administration of PBS, was subtracted from the HOVA-induced increase in left ear thickness. The increase in ear thickness was calculated by the difference between ear thickness before and 24 h after antigen challenge. Percent inhibition of ear swelling was calculated according to the following formula: % inhibition=100×(IETvehicle−IETcompound)/IETvehicle where IET=(ET24 hrs pc−ETpredose)HOVA-treated ears−(ET24 hrs pc−ETpredose)PBS-treated ears • (IET, increase ear thickness; ET, ear thickness; pc, post challenge)
Mean and standard deviation (SD) were calculated from individual ear edema values. […]

[1] abbreviates: 100 mg/kg orally twice daily (14 administrations).

Molecules are shown by their SMILES. Where two headings read alike, the source gives them in different places.

Turning to `CCCCCCCCCCCCN(C)CC(O)CS(=O)(=O)O` (stereo not drawn) [Compound 1c, 2-hydroxy-3-(N-methyldodecylammonio)propanesulfonate], in the data set with RBL-2H3 cells, the “MTC (maximum tolerated concentration)” value worked out at 200 µM and the “SI (safety index)” value is listed as 48.8. For the same compound, in the data set with DTH response in mice (setting [1]), the “Inhibition of mouse ear swelling” value is 41%. Also, the “inhibition relative to that of the high dose of dexamethasone” value in the data set on DTH response in mice came to 77%.

Consider `CCCCCCCCCCCCCCCCN(C)CC(O)CS(=O)(=O)O` (stereo not drawn) [Compound 1a, 2-hydroxy-3-(N-methylhexadecylammonio)propane-sulfonate], for which, in the data set with RBL-2H3 cells, the “MTC (maximum tolerated concentration)” value stood at 75 µM and the “SI (safety index)” value is listed as 10.9. Moreover, the “Inhibition of mouse ear swelling” value in the data set on DTH response in mice (25 mg/kg orally twice daily (14 administrations)) was 49%. In the data set on DTH response in mice (setting [1]), the “Inhibition of mouse ear swelling” value is 52%. In addition, the “inhibition relative to that of the high dose of dexamethasone” value in the data set on DTH response in mice is “up to 98%”.

The values are drawn from patent US11453642B2, “Oxygenated amino- or ammonium-containing sulfonic acid, phosphonic acid and carboxylic acid derivatives and their medical use” (GRI BIO, INC., priority 2011, dated 2022).
